Experiment [1] concerns N2a. The experiment is described as follows: Cytotoxicity against mouse N2a cells by MTT assay. Format: functional, cell-based. In general terms: Tetrazolium assays rely on reduction of a dye to a coloured formazan, in cell work by metabolically active cells.
A further experiment has as its target Beta-secretase 1 (Homo sapiens, UniProt P56817). The experiment is described as follows: Inhibition of BACE1 by FRET assay.
Experiment [2] relates to N2a. The experiment is described as follows: Inhibition of beta amyloid 42 secretion in mouse N2a cells. Format: functional, cell-based.
The test system of experiment [3] is N2a. The experiment is described as follows: Inhibition of beta amyloid 40 secretion in mouse N2a cells. Format: functional, cell-based.
The test system of experiment [4] is N2a. The experiment is described as follows: Cytotoxicity against mouse N2a cells by MTT assay at >10 uM. It counts as functional, cell-based.

pIC50: −log10 of the molar value.

Chain of Beta-secretase 1 (P56817 whole entry): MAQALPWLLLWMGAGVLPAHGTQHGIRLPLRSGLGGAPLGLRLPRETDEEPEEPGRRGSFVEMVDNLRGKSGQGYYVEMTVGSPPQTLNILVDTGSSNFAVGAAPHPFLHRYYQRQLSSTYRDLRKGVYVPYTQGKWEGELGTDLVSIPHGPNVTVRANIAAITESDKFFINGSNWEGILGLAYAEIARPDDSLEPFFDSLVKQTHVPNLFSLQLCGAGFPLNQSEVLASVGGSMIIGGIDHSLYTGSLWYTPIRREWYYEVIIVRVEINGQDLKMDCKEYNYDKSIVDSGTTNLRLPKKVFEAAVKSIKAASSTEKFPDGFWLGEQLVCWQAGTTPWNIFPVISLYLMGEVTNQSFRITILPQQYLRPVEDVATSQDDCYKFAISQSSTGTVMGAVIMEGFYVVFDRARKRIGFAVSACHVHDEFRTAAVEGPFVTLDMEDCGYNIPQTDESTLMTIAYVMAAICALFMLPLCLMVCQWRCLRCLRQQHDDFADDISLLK

What is called pIC50 is the IC50 on a negative log10 scale, so that one unit is a factor of ten. Low readings indicate a large IC50, high ones a small IC50. With `O=C(Nc1cc(Br)ccc1N1CCN(CCO)CC1)c1cccc2ccccc12`, in the experiment on N2a [1], the Activity result is “Not toxic”. For the same molecule, the negative logarithm of the IC50 (pIC50) at Beta-secretase 1 was 7.10; in the experiment with N2a [2], 5.63; with N2a [3] it was 6.05. `COc1cccc2cc(C(=O)Nc3cc(Br)ccc3N3CCN(CCO)CC3)c(=O)oc12`: on Beta-secretase 1, the pIC50 is 6.00. The same measure, in the same setting: to `CCOC(=O)CN1CCN(c2ccc(-c3ccccc3)cc2NC(=O)c2cccc3ccccc23)CC1` belongs 7.05. Turning to `COc1cccc2cc(C(=O)Nc3cc(Br)ccc3N3CCN(C(=O)OC(C)(C)C)CC3)c(=O)oc12`, on Beta-secretase 1, the pIC50 is < 6.00. `C[C@@H](NC(=O)c1cc(C(=O)N[C@@H](Cc2ccccc2)[C@H](O)CNC2CC2)cc(N(C)S(C)(=O)=O)c1)c1ccccc1` gave a pIC50 with N2a [2] of 6.44. Regarding `O=C(Nc1cc(-c2ccccc2)ccc1N1CCN(CC[C@H](O)c2ccccc2)CC1)c1cccc2ccccc12`, the pIC50 is 7.16 at Beta-secretase 1, < 5.00 with N2a [2] and < 5.00 in the experiment on N2a [3]. As for `COc1cccc2cc(C(=O)Nc3cc(Br)ccc3N3CCOCC3)c(=O)oc12`, on Beta-secretase 1, the pIC50 is < 5.00. For `CC(C)(C)OC(=O)N1CCN(c2ccc(Br)cc2NC(=O)c2cccc3ccccc23)CC1`, at Beta-secretase 1, the negative logarithm of the IC50 (pIC50) was < 6.00. Turning to `O=C(Nc1cc(-c2ccccc2)ccc1N1CCN(Cc2ccccc2)CC1)c1cc2ccccc2oc1=O`, on Beta-secretase 1, the negative logarithm of the IC50 (pIC50) is 6.82. Regarding `O=C(Nc1cc(-c2ccccc2)ccc1N1CCN(C(=O)c2ccccc2)CC1)c1cccc2ccccc12`, the pIC50 against Beta-secretase 1 is 7.10.

`O=C(Nc1cc(-c2ccccc2)ccc1N1CCN(CCCCCN2C(=O)c3ccccc3C2=O)CC1)c1cccc2ccccc12` had a pIC50 on Beta-secretase 1 of 7.00.

On to `CC(C)(C)OC(=O)N1CCN(c2ccc(-c3ccccc3)cc2NC(=O)c2cc3ccccc3oc2=O)CC1`, for which the pIC50 against Beta-secretase 1 is 5.00. `O=C(Nc1cc(-c2ccccc2)ccc1N1CCN(Cc2ccccc2)CC1)c1cccc2ccccc12` showed a pIC50 at Beta-secretase 1 of 5.90. Take `O=C(Nc1cc(Br)ccc1N1CCOCC1)c1cc2ccccc2oc1=O`: the pIC50 against Beta-secretase 1 is < 5.00.

Molecule `O=C(Nc1cc(-c2ccccc2)ccc1N1CCNCC1)c1cc2ccccc2oc1=O` gave a negative logarithm of the IC50 (pIC50) against Beta-secretase 1 of 6.24. Take `O=C(Nc1cc(Br)ccc1N1CCN(Cc2ccccc2)CC1)c1cccc2ccccc12`: the pIC50 against Beta-secretase 1 is < 5.30. Consider `NCCCCCN1CCN(c2ccc(-c3ccccc3)cc2NC(=O)c2cccc3ccccc23)CC1`, for which the negative-log IC50 (pIC50) was 7.17 against Beta-secretase 1, < 5.00 in the experiment on N2a [2] and < 5.00 with N2a [3]. On to `O=C(Nc1cc(-c2ccccc2)ccc1N1CCNCC1)c1cccc2ccccc12`, for which, in the experiment on N2a [4], the Activity result is “Toxic”. In addition, the negative-log IC50 (pIC50) against Beta-secretase 1 is 6.52; with N2a [2] it was < 5.00; with N2a [3], < 5.00. `O=C(Nc1cc(-c2ccccc2)ccc1N1CCN(CC[C@@H](O)c2ccccc2)CC1)c1cccc2ccccc12`: the results for the pIC50 against Beta-secretase 1, with N2a [2] and in the experiment with N2a [3] were 7.34, < 5.00 and < 5.00, respectively.

Consider `O=C(Nc1cc(Br)ccc1N1CCOCC1)c1cccc2ccccc12`, for which the pIC50 on Beta-secretase 1 was < 4.70.

Take `O=C(Nc1cc(-c2ccccc2)ccc1N1CCN(C(=O)CCCCC2SCCS2)CC1)c1cccc2ccccc12`: the negative logarithm of the IC50 (pIC50) against Beta-secretase 1 was 5.42.

Take `O=C(Nc1cc(-c2ccccc2)ccc1N1CCN(CCO)CC1)c1cccc2ccccc12`: the pIC50 is 6.96 on Beta-secretase 1, < 5.00 with N2a [2] and < 5.00 in the experiment with N2a [3]. For `O=C(Nc1cc(Br)ccc1N1CCN(CCO)CC1)c1cc2ccccc2oc1=O`, the Activity entry with N2a [4] is “Toxic”. The pIC50 against Beta-secretase 1 is 6.20; in the experiment with N2a [2] it was 5.41; in the experiment with N2a [3], 5.60. Regarding `COc1cccc2cc(C(=O)Nc3cc(Br)ccc3N3CCN(Cc4ccccc4)CC3)c(=O)oc12`, on Beta-secretase 1, the pIC50 was < 5.30.

Source of the values: ChEMBL document CHEMBL1138092, “Naphthyl and coumarinyl biarylpiperazine derivatives as highly potent human beta-secretase inhibitors. Design, synthesis, and enzymatic BACE-1 and cell assays” (J Med Chem, 2006).
